The source of these data is patent US12458680B2, “Reconstitutable teverelix-TFA composition” (Antev Limited, priority 2018, dated 2025).

Molecules are shown by their SMILES. Square brackets hold non-standard residues; d marks the D form. Peptide text beside a SMILES is read from it. dPhe(4-Cl) = N[C@H](Cc1ccc(Cl)cc1)C(=O)O; d2Nal = N[C@H](Cc1ccc2ccccc2c1)C(=O)O; d(hCit) = NC(=O)NCCCC[C@@H](N)C(=O)O; Lys(iPr) = CC(C)NCCCC[C@H](N)C(=O)O; d3Pal = N[C@H](Cc1cccnc1)C(=O)O

Data set [1] is described as follows: Injection site reaction after subcutaneous and/or intramuscular injection. In kind it is in vivo. The note with it: 30-100 mg/ml, 0.4-1.6 ml.
The nature of data set [2]: Plasma concentration of teverelix in patients versus weight. In kind it is in vivo. The note with it: different patients.

Consider `CC(=O)N[C@H](Cc1ccc2ccccc2c1)C(=O)N[C@H](Cc1ccc(Cl)cc1)C(=O)N[C@H](Cc1cccnc1)C(=O)N[C@@H](CO)C(=O)N[C@@H](Cc1ccc(O)cc1)C(=O)N[C@H](CCCCNC(N)=O)C(=O)N[C@@H](CC(C)C)C(=O)N[C@@H](CCCCNC(C)C)C(=O)N1CCC[C@H]1C(=O)N[C@H](C)C(N)=O` [teverelix, Ac-D-Nal-D-pClPhe-D-Pal-Ser-Tyr-D-Hci-Leu-Lys (iPr)-Pro-D-Ala-NH2] (Ac-[d2Nal][dPhe(4-Cl)][d3Pal]SY[d(hCit)]L[Lys(iPr)]P[dA]-NH2), for which, in data set [1], the injection site reaction result is given as “mild injection site reaction”. For the same compound, the “dependence of plasma concentration of teverelix on patients weight” value in data set [2] is “substantially independent of the patients weight”.
